# Laboratory results as given in US20140051678A1, “INHIBITORS OF THE ACTIVITY OF COMPLEX III OF THE MITOCHONDRIAL ELECTRON TRANSPORT CHAIN AND USE THEREOF FOR TREATING DISEASES” (STEMERGIE BIOTECHNOLOGY SA, priority 2010, published 2014).
# Read-outs that look alike come from different tables or passages of the source.
# What was measured:
# [1] = test system: glioma-initiating cells (GICs); experiment: Short term dose response on gliomaspheres, cell death by FACS after trypan blue incorporation; format: cell-based, human; details: 50 μM, 48 hrs
# Method: Short term dose response of the compound of Example 4 was performed according to the method as described in the patent application PCT no PCTIB2010/052237 (WO 2010/134039).
# Briefly, gliomaspheres were dissociated, counted and plated at 10 cells/μl in DMEM-F12, 2% B27, 1% peni/strep, EGF and bFGF at 1 ng/ml. Cells were then treated with various amount of the compound for 48 hrs and cell death was analysed by FACS after incorporation of trypan blue (1/1000).
# U-87 MG cells = experiment: MTT cytotoxicity / mitochondrial toxicity assay, glucose vs galactose medium, U-87 MG; format: cell-based, Human; details: for AC50: Homo sapiens
# Method: (§1) Human hepatocellular liver carcinoma cells (HepG2) or Human glioblastoma-astrocytoma, epithelial-like cells (U-87 MG) were plated on 96-well tissue culture treated polystyrene plates at 0.5×10^4 cells in 100 μL of Dulbecco's modified Eagle's medium containing either galactose or glucose supplemented with 10% foetal bovine serum and antibiotics per well. After 24 hr the cells are dosed with test compound at a range of concentrations and incubated for 72 nr. One hour prior to the end of the incubation period, the cells are loaded with MTT [yellow; 3-(4,5-dimethyl-2-thiazolyl)-2,5-diphenyl-2H-tetrazolium bromide], the plates are dried and re-solubilised using DMSO. The plates are then scanned using SpectraFluor Plus (TECAN).
# (§2) To measure the relative sensitivity of HepG2 or U-87 MG cells grown in medium containing either galactose or glucose to the test compound.
# (§3) Cytotoxicity was assessed using MTT. The assay provides a measurement of mitochondrial dehydrogenase activity and cell loss.
# (§4) Cell Loss: A decrease can indicate a loss of cells indicating toxicity due to necrosis, apoptosis or a reduction in cellular proliferation.
# (§5) Mitochondrial Activity: A decrease can also indicate an effect on mitochondrial function as mitochondrial dehydrogenases reduce the MTT [yellow; 3-(4,5-dimethyl-2-thiazolyl)-2,5-diphenyl-2H-tetrazolium bromide] to formazan. The formazan is detected in this assay (see assay protocol for details).
# (§6) The AC50 is calculated from a four point logistic curve fit to determine percent survival of each test agent and control compound. The fold change is calculated from AC50 curve fit data by comparison with cells grown with glucose or galactose, A greater than 5-fold response in the presence of galactose indicates the compound is considered to be a mitochondrial toxicant.
# HepG2 cells = experiment: MTT cytotoxicity / mitochondrial toxicity assay, glucose vs galactose medium, HepG2; format: cell-based, Human; details: for AC50: Homo sapiens
# Method: as §1, §2, §3, §4, §5, §6
compound,measurement,setting,value
"O=CNc1cccc(C(=O)NC2CCCCCCCC2)c1O [Example 4, N-cyclononyl-3-formamido-2-hydroxybenzamide]",fold increase cell death,[1],≥ 1.2 fold
same,Fold Change (AC50 glucose vs galactose),U-87 MG cells; 72 h,>70.1
same,AC50,"U-87 MG cells; galactose medium, 72 h, MTT, read-out: Cell Loss - Galactose AC50",1410 nM
same,AC50,"U-87 MG cells; glucose medium, 72 h, MTT, read-out: Cell Loss - Glucose AC50",> 100000 nM
same,Cell Loss - Galactose MEC,"U-87 MG cells; galactose medium, 72 h, MTT",1 µM
same,Cell Loss - Glucose MEC,"U-87 MG cells; glucose medium, 72 h, MTT",>100 µM
same,Mitochondrial Toxicant,U-87 MG cells; greater than 5-fold response in galactose = mitochondrial toxicant,Yes
same,Fold Change (AC50 glucose vs galactose),"HepG2 cells; HepG2, 72 h",9.92
same,Cell Loss - Galactose MEC,"HepG2 cells; HepG2, galactose medium, 72 h, MTT",4 µM
same,Cell Loss - Glucose MEC,"HepG2 cells; HepG2, glucose medium, 72 h, MTT",10 µM
same,Mitochondrial Toxicant,"HepG2 cells; HepG2, greater than 5-fold response in galactose = mitochondrial toxicant",Yes
same,AC50,"HepG2 cells; HepG2, galactose medium, 72 h, MTT, read-out: Cell Loss - Galactose AC50",2400 nM
same,AC50,"HepG2 cells; HepG2, glucose medium, 72 h, MTT, read-out: Cell Loss - Glucose AC50",23800 nM
